In brackets after ≈: the same amount, converted by molar mass. Where two headings read alike, the source gives them in different places.

Experiment [1] has as its system mouse leukemia L1210 cells. In words: Inhibition of L1210 cell growth. Format: cell-based. How it is done:
Preliminary biological data for inhibiting cell growth of murine L1210 leukemic cells and human acute promyelocytic leukemia cells (HL-60) during 72 h of exposure to the compounds are given in Table IV. The potencies for inhibiting [^3 H]TdR incorporation into DNA in HL-60 cells during the initial 30-min period are also given in Table IV. It is interesting to note that 1,8-di-O-methyl derivatives are uniformly devoid of activity against L1210 leukemic cells. […] The B/A ratios allow an indirect estimation of whether or not cytotoxicities exerted by these analogues are primarily due to initial inhibition of DNA synthesis. […] Whether these analogues, like m-AMSA, ellipticine, or anthracyclines, act by inhibiting DNA topoisomerase II remains to be explored. […] Our preliminary experiments indicate that the compounds arrest cells in the S and/or G2 phases of the cell cycle (unpublished results).

Experiment [2] has as its system [^3 H]TdR incorporation into DNA in HL-60 cells. Kind of experiment: Inhibition of [3H]TdR incorporation into DNA in HL-60 cells (initial 30 min). To be noted: for B/A: ratio of ID50 for TdR incorporation (B) to ID50 for cell growth (A), HL-60; for IC50: HL-60, initial 30 min exposure, read-out: ID50, M (HL-60 TdR into DNA (B)). Format: cell-based, human. The protocol: For precursor incorporation studies, each compound at four to six concentrations (0.2% DMSO) was preincubated with HL-60 cells (2.5×10^6 /Ml) for 15 min prior to the addition of [^3 H-methyl]TdR (1 μCi, 0.15 nmol/mL) and was incubated for 30 min. […] The incorporation of radioactivity in DNA in the absence of an analogue in the presence of DMSO was used as a control.

The test system of experiment [3] is human leukemia HL-60 cells. Kind of experiment: HL-60 cell growth inhibition (72 h). Format: cell-based. Particulars: HL-60, 72 h, read-out: ID50, M [HL-60 cell growth (72 h)] (A). The protocol:
For cell growth inhibition studies, HL-60 cells […]) were grown in RPMI 1640 media at 37° C. in humidified 5% CO2 for 72 h. Viable cells were counted with the trypan blue exclusion method. The fractional inhibitions at four or five concentrations of compounds (in 0.2% DMSO) were analyzed with a median-effect plot (Chou, T.-C., et al., Adv. Enzyme Regul. 22:27 (1984)) by using a computer program. (Chou, J.; Chou, T.-C. Dose-Effect Analyses with Microcomputer. Quantitation of ID50, LD50, Synergism, Antagonism, Low-dose Risk, Receptor-Binding and Enzyme Kinetics; IBM-PC Series, Elsevier-Biosoft, Elsevier Scientific: Cambridge, U.K., (1986)). The median-effect concentration (ID50) was automatically determined for the x intercept of the median-effect plot. Cell growth in the absence of a compound and in the presence of DMSO was used as a control. DMSO (0.2%) alone inhibited cell growth 3.8±1.2% during the 72-h incubation period.

[4] abbreviates: Table IV, L1210, 72 h exposure, read-out: ID50, M (L1210 cell growth).
Setting [5] is: Mus musculus, Table IV, L1210, 72 h exposure, read-out: ID50, M (L1210 cell growth).
[6] abbreviates: Mus musculus, L1210, Table I, read-out: ID50 (the source's name).
The mark [7] stands for this setting: Mus musculus, L1210, Table I, read-out: ID50 (μg/mL).
Setting [8] is: Mus musculus, L1210, Table II, antileukemic activity, read-out: L1210: ID50.
Setting [9] is: Table I, read-out: ID50 (the source's name).

As to “3-(Bromomethyl)-1(and 8)-Hydroxy-8(and 1)-Methoxy-9,10-anthraquinone [Va]”, the IC50 in experiment [1] (setting [4]) amounted to 8.8 µM; in experiment [3] (0.2% DMSO), 7.1 µM. For the same compound, the B/A in experiment [2] is reported as 1.7.
As for “3-(Dibromomethyl)-1(and 8)-hydroxy-8(and 1)-methoxy-9,10anthraquinone [VIIa]”, the IC50 in experiment [1] (setting [4]) stood at 4.2e-05 µM; in experiment [2], 13 µM; in experiment [3] (0.2% DMSO), 0.06 µM. In experiment [2], the B/A is given as 217.
As to “6-(Dibromomethyl)-1-(and 8)-hydroxy-3,8(and) 1,3)-dimethoxy-9,10-anthraquinone [VIIb]”, the IC50 was found to be 0.001 µM in experiment [1] (setting [4]), 23 µM in experiment [2] and 0.097 µM in experiment [3] (0.2% DMSO). For the same compound, in experiment [2], the B/A was found to be 237.
For the compound `COc1cccc2c1C(=O)c1c(OC)cc(CBr)cc1C2=O` [IIIa, 3-bromomethyl-1,8-dimethoxy-9,10-anthraquinone], the IC50 in experiment [1] (setting [5]) was found to be 9.2 µM; in experiment [2] (Homo sapiens, 0.5 h) it was 11 µM; in experiment [3] (Homo sapiens, 0.2% DMSO) it was 4.4 µM. Further, the B/A in experiment [2] turned out to be 2.5.
For `COc1cc(OC)c2c(c1)C(=O)c1cc(CBr)cc(OC)c1C2=O` [IIIb, 3-bromomethyl-1,6,8-trimethoxy-9,10-anthraquinone] the same measures were 0.68 µM, 12 µM, 84 µM and 0.14.
Consider `COc1cccc2c1C(=O)c1c(OC)cc(C)cc1C2=O` [IIa, 1,8-Dimethoxy-3-methyl-9,10-anthraquinone], for which the IC50 was found to be 28 µM in experiment [1] (setting [5]); 19 µM in experiment [2] (Homo sapiens, 0.5 h); 10 µM in experiment [3] (Homo sapiens, 0.2% DMSO).
As for `Cc1cc(O)c2c(c1)C(=O)c1cccc(O)c1C2=O` [IIa], the IC50 in experiment [1] (setting [6]) was over 390 µM; in experiment [1] (setting [7]) it was over 100 µg/mL.
`COc1cc(OC)c2c(c1)C(=O)c1cc(C)cc(OC)c1C2=O` [IIb, 1,3,8-Trimethoxy-6-methyl-9,10-anthraquinone]: the IC50 in experiment [1] (setting [5]) stood at 100 µM; in experiment [2] (Homo sapiens, 0.5 h) it was 21 µM; in experiment [3] (Homo sapiens, 0.2% DMSO) it was 49 µM.
For `Cc1cc(O)c2c(c1)C(=O)c1cc(O)cc(O)c1C2=O` [IIb], the IC50 is over 335 µM in experiment [1] (setting [6]) and over 100 µg/mL in experiment [1] (setting [7]).
With `COc1cccc2c1C(=O)c1c(OC)cc(C(Br)Br)cc1C2=O` [IVa, 3-Dibromomethyl-1,8-dimethoxy-9,10-anthraquinone], the IC50 worked out at 0.89 µM in experiment [1] (setting [5]); 9 µM in experiment [2] (Homo sapiens, 0.5 h); 2.1 µM in experiment [3] (Homo sapiens, 0.2% DMSO). For the same compound, in experiment [2], the B/A was determined as 4.3.
On the same counts, the results for `COc1cc(OC)c2c(c1)C(=O)c1cc(C(Br)Br)cc(OC)c1C2=O` [IVb, 6-(Dibromomethyl)-1,3,8-trimethoxy-9,10-anthraquinone] are 41 µM, 58 µM, 6 µM and 9.7.
Turning to `CCN(CC)Cc1cc(OC)c2c(c1)C(=O)c1cccc(OC)c1C2=O` [IXa-1, 3-[(Diethylamino)methyl]-1,8-dimethoxy-9,10-anthraquinone], the IC50 in experiment [1] (setting [6]) stood at 128 µM; in experiment [1] (setting [7]), 52.3 µg/mL; in experiment [1] (setting [5]), 130 µM; in experiment [2] (Homo sapiens, 0.5 h) it was 19 µM; in experiment [3] (Homo sapiens, 0.2% DMSO), 30 µM. Further, the B/A in experiment [2] came out at 6.3.
For `COc1cccc2c1C(=O)c1c(OC)cc(CN(CCO)CCO)cc1C2=O` [IXa-2, 3-[N,N-bis(2-hydroxethyl)amino]methyl-1,8-dimethoxy-9,10-anthraquinone], the IC50 was over 49.8 µM in experiment [1] (setting [6]); over 21 µg/mL in experiment [1] (setting [7]); over 50 µM in experiment [1] (setting [8]); over 50 µM in experiment [1] (setting [5]); 14 µM in experiment [2] (Homo sapiens, 0.5 h); 490 µM in experiment [3] (Homo sapiens, 0.2% DMSO). In experiment [2], the B/A was 0.03.
Regarding `COc1cccc2c1C(=O)c1c(OC)cc(CN(CCCl)CCCl)cc1C2=O` [IXa-3, 3-[N,N-bis(2-chloroethyl)amino]methyl-1,8-dimethoxy-9,10-anthraquinone], the “ID50” value in experiment [1] (Table I) stood at 5.73 µg/mL (≈ 13.6 µM). The IC50 in experiment [1] (setting [9]) amounted to 12.5 µM; in experiment [1] (setting [4]), 13 µM; in experiment [2] it was 14 µM. Also, the B/A in experiment [2] is on record as 7.8.
Consider `CNC(=O)OCCN(CCOC(=O)NC)Cc1cc(OC)c2c(c1)C(=O)c1cccc(OC)c1C2=O` [IXa-4], for which the IC50 in experiment [1] (setting [5]) came out at 72 µM; in experiment [2] (Homo sapiens, 0.5 h), 9.4 µM; in experiment [3] (Homo sapiens, 0.2% DMSO) it was 9.5 µM. Moreover, in experiment [2], the B/A is listed as 0.99.
Consider `CCNCc1cc(OC)c2c(c1)C(=O)c1cccc(OC)c1C2=O` [IXa-5, 3-(N-ethylamino)methyl-1,8-dimethoxy-9,10-anthraquinone], for which the IC50 in experiment [1] (setting [6]) came out at 3.59 µM; in experiment [1] (setting [7]), 1.3 µg/mL; in experiment [1] (setting [5]), 1.2 µM; in experiment [2] (Homo sapiens, 0.5 h), 29 µM; in experiment [3] (Homo sapiens, 0.2% DMSO) it was 48 µM. Also, the B/A in experiment [2] is listed as 0.60.
On to `COc1cccc2c1C(=O)c1c(OC)cc(CNCCO)cc1C2=O` [IXa-6, 3-[N-(2-hydroxyethyl)amino]methyl-1,8-dimethoxy-9,10-anthraquinone], for which the IC50 in experiment [1] (setting [6]) came out at 142 µM; in experiment [1] (setting [7]) it was 53.7 µg/mL; in experiment [1] (setting [5]), 140 µM; in experiment [2] (Homo sapiens, 0.5 h) it was 46 µM; in experiment [3] (Homo sapiens, 0.2% DMSO), 55 µM. The B/A in experiment [2] was found to be 0.84.
As for `CCN(CC)Cc1cc(OC)c2c(c1)C(=O)c1cc(OC)cc(OC)c1C2=O` [IXb-1, 3-(N,N-diethylamino)methyl-1,6,8-trimethoxy-9,10-anthraquinone], the IC50 stood at 6.91 µM in experiment [1] (setting [6]); 2.9 µg/mL in experiment [1] (setting [7]); 4.2 µM in experiment [2] (Homo sapiens, 0.5 h); 7.9 µM in experiment [3] (Homo sapiens, 0.2% DMSO). Also, the B/A in experiment [2] was found to be 0.53.
In the case of `COc1cc(OC)c2c(c1)C(=O)c1cc(CN(CCO)CCO)cc(OC)c1C2=O` [IXb-2, 3-[N,N-bis(2-hydroxethyl)amino]methyl-1,6,8-trimethoxy-9,10-anthraquinone], the IC50 in experiment [1] (setting [6]) was 27.7 µM; in experiment [1] (setting [7]) it was 12.5 µg/mL; in experiment [1] (setting [8]), over 27.6 µM; in experiment [1] (setting [5]), over 27 µM; in experiment [2] (Homo sapiens, 0.5 h), 17 µM; in experiment [3] (Homo sapiens, 0.2% DMSO), 100 µM. Besides, the B/A in experiment [2] was 0.17.
Take `COc1cc(OC)c2c(c1)C(=O)c1cc(CN(CCCl)CCCl)cc(OC)c1C2=O` [IXb-3, 3-[N,N-bis(2-chloroethyl)amino]methyl-1,8,6-trimethoxy-9,10-anthraquinone]: in experiment [1] (Table I), the “ID50” value was 1.30 µg/mL (≈ 2.87 µM). In addition, the IC50 in experiment [1] (setting [9]) came to 2.66 µM; in experiment [1] (setting [4]), 2.7 µM; in experiment [2], 8.9 µM; in experiment [3] (0.2% DMSO) it was 2 µM. Also, the B/A in experiment [2] is reported as 4.5.
With `CCNCc1cc(OC)c2c(c1)C(=O)c1cc(OC)cc(OC)c1C2=O` [IXb-5, 3-(N-ethylamino)methyl-1,6,8-trimethoxy-9,10-anthraquinone], the IC50 in experiment [1] (setting [6]) is 3.67 µM; in experiment [1] (setting [7]) it was 1.44 µg/mL; in experiment [1] (setting [5]), 9.8 µM; in experiment [2] (Homo sapiens, 0.5 h) it was 13 µM; in experiment [3] (Homo sapiens, 0.2% DMSO), 17 µM. Further, the B/A in experiment [2] is reported as 0.76.
As for `COc1cc(OC)c2c(c1)C(=O)c1cc(CNCCO)cc(OC)c1C2=O` [IXb-6, 3-[N-(2-hydroxyethyl)amino]methyl-1,6,8-trimethoxy-9,10-anthraquinone], the IC50 in experiment [1] (setting [6]) came to 12.5 µM; in experiment [1] (setting [7]) it was 5.1 µg/mL; in experiment [1] (setting [5]), 17 µM; in experiment [2] (Homo sapiens, 0.5 h), 26 µM; in experiment [3] (Homo sapiens, 0.2% DMSO), 110 µM. The B/A in experiment [2] was 0.24.
In the case of `COc1cc(OC)c2c(c1)C(=O)c1cc(CNCCCl)cc(OC)c1C2=O` [IXb-7, 3-[N-(2-chloroethyl)amino]methyl-1,6,8-trimethoxy-9,10-anthraquinone], the IC50 in experiment [1] (Mus musculus, L1210, 72 h, read-out: ID50, M (L1210 cell growth)) was found to be 3.2 µM; in experiment [2] (Homo sapiens, 0.5 h), 18 µM; in experiment [3] (Homo sapiens) it was 5.8 µM. For the same compound, the B/A in experiment [2] came out at 3.1.

Source of the values: patent publication US5053431A, “Derivatives of chrysophanol as topoisomerase II inhibitors” (Sloan-Kettering Institute For Cancer Research, priority 1990, dated 1991).
